# Measured values from US4379784A, “Pyrimidinyl ureido penicillins” (Dr. Karl Thomae Gesellschaft mit beschrankter Haftung, priority 1980, dated 1983).
# Tests used:
# [1] = tested on: Staphylococcus aureus SG 511; experiment: series dilution test in the microtiter system (MIC), S. aureus SG 511; format: cell-based; conditions: SG511, 18 to 20 hours at 37° C., liquid medium, read-out: minimum inhibitory concentrations (MIC), S.aureus SG 511
# Experimental: (§1) The method of the series dilution test in the microtiter system was used. The substances were tested for bacteriostasis in a liquid medium. The bacteriostatic activity was tested at the following concentrations:
# (§2) A nutrient medium having the following composition was used: 10 gm of peptone, 8 gm of meat extract oxoid, 3 gm of sodium chloride, and 2 gm of sec. sodium phosphate were made up to […] with distilled water (pH 7.2 to 7.4). The age of the primary cultures was about 20 hours.
# (§3) The bacterial suspension was adjusted using the photometer (according to "Eppendorf", test tube diameter 14 mm, filter 546 nm) by reference to the turbidity of a barium sulfate comparison suspension which was produced by a barium sulfate suspension formed by the addition of 3.0 ml of 1% barium chloride solution to 97 ml of 1% sulfuric acid. After adjustment, Streptococcus aronson was diluted in the ratio 1:15 and the other test pathogens were diluted in the ratio 1:1500 with a common salt solution.
# (§4) 16 mg of the test substance were weighed in 10 ml measuring flasks and solvent was added up to the mark. Further dilutions in the series were made with distilled water or the solvent in question.
# (§5) The depressions in the microtiter plates were filled with 0.2 ml of nutrient medium, 0.01 ml of the corresponding diluted substance and a drop of bacterial suspension (0.01 ml) and incubated for 18 to 20 hours at 37° C. A solvent check was carried out continuously at the same time.
# (§6) The reading was taken macroscopically, and the respective limiting concentration (=the lowest concentration still having bacteriostatic activity) was determined.
# (§7) The following were used as test organisms:
# (§8) Staphylococcus aureus SG 511, Escherichia coli ATCC 11 775, Pseudomonas aeruginosa Hamburgensis and Pseudomonas aeruginosa BC 19, Serratia Marcescens ATCC 13 880, Klebsiella pneumoniae ATCC 10 031 and BC 6, Proteus mirabilis Hamburgensis, Proteus rettgeri BC 7, Enterobacter cloacae ATCC 13 047.
# (§9) Table 1 below lists the minimum inhibitory concentrations (MIC) in μgm/ml determined for typical representatives of the compounds of the present invention. These are the sodium salts of compounds of the formula I where A=p-hydroxyphenyl and R has the indicated meanings.
# [2] = tested on: Escherichia coli ATCC 11 775; experiment: series dilution test in the microtiter system (MIC), E. coli ATCC 11775; format: cell-based; conditions: 18 to 20 hours at 37° C., liquid medium, read-out: minimum inhibitory concentrations (MIC), E.Coli ATCC 11775
# Experimental: as §1, §2, §3, §4, §5, §6, §7, §8, §9
# [3] = tested on: Pseudomonas aeruginosa Hamburgensis; experiment: series dilution test in the microtiter system (MIC), Ps. aeruginosa Hamburgensis; format: cell-based; conditions: 18 to 20 hours at 37° C., liquid medium, read-out: minimum inhibitory concentrations (MIC), Pseud. aerug. Hbg.
# Experimental: as §1, §2, §3, §4, §5, §6, §7, §8, §9
# [4] = tested on: Pseudomonas aeruginosa BC 19; experiment: series dilution test in the microtiter system (MIC), Ps. aeruginosa BC 19; format: cell-based; conditions: BC19, 18 to 20 hours at 37° C., liquid medium, read-out: minimum inhibitory concentrations (MIC), Pseud. aerug. BC 19
# Experimental: as §1, §2, §3, §4, §5, §6, §7, §8, §9
# [5] = tested on: Serratia Marcescens ATCC 13 880; experiment: series dilution test in the microtiter system (MIC), Serratia marcescens ATCC 13880; format: cell-based; conditions: 18 to 20 hours at 37° C., liquid medium, read-out: minimum inhibitory concentrations (MIC), Serrat. marcesc. ATCC 13880
# Experimental: as §1, §2, §3, §4, §5, §6, §7, §8, §9
# [6] = tested on: Klebsiella pneumoniae ATCC 10 031; experiment: series dilution test in the microtiter system (MIC), Klebsiella pneumoniae ATCC 10031; format: cell-based; conditions: 18 to 20 hours at 37° C., liquid medium, read-out: minimum inhibitory concentrations (MIC), Klebs.pneum. ATCC 10031
# Experimental: as §1, §2, §3, §4, §5, §6, §7, §8, §9
# [7] = tested on: Klebsiella pneumoniae BC 6; experiment: series dilution test in the microtiter system (MIC), Klebsiella pneumoniae BC 6; format: cell-based; conditions: BC6, 18 to 20 hours at 37° C., liquid medium, read-out: minimum inhibitory concentrations (MIC), Klebs. pneum. BC 6
# Experimental: as §1, §2, §3, §4, §5, §6, §7, §8, §9
# [8] = tested on: Proteus mirabilis Hamburgensis; experiment: series dilution test in the microtiter system (MIC), Proteus mirabilis Hamburgensis; format: cell-based; conditions: 18 to 20 hours at 37° C., liquid medium, read-out: minimum inhibitory concentrations (MIC), Prot. mirabilis Hbg
# Experimental: as §1, §2, §3, §4, §5, §6, §7, §8, §9
# [9] = tested on: Proteus rettgeri BC 7; experiment: series dilution test in the microtiter system (MIC), Proteus rettgeri BC 7; format: cell-based; conditions: Providencia rettgeri, BC7; 18 to 20 hours at 37° C., liquid medium; read-out: minimum inhibitory concentrations (MIC), Prot. geri BC
# Experimental: as §1, §2, §3, §4, §5, §6, §7, §8, §9
# [10] = tested on: Enterobacter cloacae ATCC 13 047; experiment: series dilution test in the microtiter system (MIC), Enterobacter cloacae ATCC 13047; format: cell-based; conditions: 18 to 20 hours at 37° C., liquid medium, read-out: minimum inhibitory concentrations (MIC), Eb.cloacae ATCC 13047
# Experimental: as §1, §2, §3, §4, §5, §6, §7, §8, §9
# [11] = tested on: E. coli ATCC 11775; experiment: in vivo experimental E. coli infection in mice; design: species or system mice (female, NMRI strain); conditions: Escherichia coli, ATCC11775, sc, 168 h; subcutaneous, one treatment 1 hour post infectionem; 50% survival, 7 days observation
# Experimental: (§10) A number of the compounds of the present invention were tested in vivo against experimental infections in mice. E. coli ATCC 11775 and Pseudomonas aeruginosa BC 19 were used as the pathogenic bacteria. An intraperitoneal infection was produced with 0.2 ml of a 5% mucin suspension of the bacteria. This corresponds to about 1.4×10^6 E. coli bacteria and 1.3×10^6 Pseudomonas bacteria per mouse. Female mice of the NMRI strain were divided into groups of 10 animals; two groups were untreated, the other groups were treated subcutaneously with various doses of the penicillins of the present invention, to determine the ED50 (dose at which 50% of the animals survived). For the E. coli infection, one treatment was given*. For the Pseudomonas infection, three treatments were given (1, 3 and 5 hours post-infectionem). *1 hour post infectionem In both cases, the observation period was 7 days.
# [12] = tested on: Pseudomonas aeruginosa BC 19; experiment: in vivo experimental Pseudomonas infection in mice; design: species or system mice (female, NMRI strain); conditions: BC19, sc, 168 h, subcutaneous, three treatments 1, 3 and 5 hours post-infectionem, 50% survival, 7 days observation, read-out: ED50, Pseud. Infection
# Experimental: as §10, with “post-infectionem).” for “post-infectionem). *1 hour post infectionem”
MIC [1] [µg/mL],MIC [2] [µg/mL],MIC [3] [µg/mL],MIC [4] [µg/mL],MIC [5] [µg/mL],MIC [6] [µg/mL],MIC [7] [µg/mL],MIC [8] [µg/mL],MIC [9] [µg/mL],MIC [10] [µg/mL],Compound,ED50 [11] [mg/kg],ED50 [12] [mg/kg]
0.25,0.25,1,1,0.5,2,2,0.06,0.5,0.5,CC1(C)S[C@@H]2[C@H](NC(=O)C(NC(=O)Nc3cnc(Nc4ccc(S(=O)(=O)NC5=NCCCN5)cc4)nc3O)c3ccc(O)cc3)C(=O)N2[C@H]1C(=O)O (some centres unmarked) [A],0.6,2.1
0.5,0.25,2,1,0.25,2,4,0.06,0.5,0.1,CC1(C)S[C@@H]2[C@H](NC(=O)C(NC(=O)Nc3cnc(Nc4ccc(S(=O)(=O)NC5=NCCN5)cc4)nc3O)c3ccc(O)cc3)C(=O)N2[C@H]1C(=O)O (some centres unmarked) [B],0.7,1.9
0.25,0.12,1,2,0.25,1,1,0.06,0.25,0.5,CC1(C)S[C@@H]2[C@H](NC(=O)C(NC(=O)Nc3cnc(Nc4ccc(S(=O)(=O)NC5=NCCS5)cc4)nc3O)c3ccc(O)cc3)C(=O)N2[C@H]1C(=O)O (some centres unmarked) [C],~3,17
0.5,0.25,1,1,0.25,2,4,0.06,0.25,1,CC1(C)S[C@@H]2[C@H](NC(=O)C(NC(=O)Nc3cnc(Nc4ccc(S(=O)(=O)NC5=NCCO5)cc4)nc3O)c3ccc(O)cc3)C(=O)N2[C@H]1C(=O)O (some centres unmarked) [D],~2,

# The next lines start with the compound.
Compound,MIC [1] [µg/mL],MIC [2] [µg/mL],MIC [3] [µg/mL],MIC [4] [µg/mL],MIC [5] [µg/mL],MIC [6] [µg/mL],MIC [7] [µg/mL],MIC [8] [µg/mL],MIC [9] [µg/mL],MIC [10] [µg/mL],ED50 [11] [mg/kg],ED50 [12] [mg/kg]
CC1(C)S[C@@H]2[C@H](NC(=O)C(NC(=O)Nc3cnc(Nc4ccc(S(=O)(=O)NCCO)cc4)nc3O)c3ccc(O)cc3)C(=O)N2[C@H]1C(=O)O (some centres unmarked) [F],0.5,0.25,2,1,0.13,2,4,0.06,0.5,2,~5,10 to 20
CC1(C)S[C@@H]2[C@H](NC(=O)C(NC(=O)Nc3cnc(Nc4ccc(S(=O)(=O)NCC(N)=O)cc4)nc3O)c3ccc(O)cc3)C(=O)N2[C@H]1C(=O)O (some centres unmarked) [G],0.5,0.12,1,1,0.25,2,2,0.06,0.5,1,~5,
CC1(C)S[C@@H]2[C@H](NC(=O)C(NC(=O)Nc3cnc(Nc4ccc(S(=O)(=O)N5CCN(C=O)CC5)cc4)nc3O)c3ccc(O)cc3)C(=O)N2[C@H]1C(=O)O (some centres unmarked) [H],0.5,0.25,2,1,0.25,2,2,0.06,0.5,1,,
"CC1(C)S[C@@H]2[C@H](NC(=O)[C@H](NC(=O)N3CCNC3=O)c3ccccc3)C(=O)N2[C@H]1C(=O)O [J, azlocillin, reference compound]",0.5,8,8,8,4,32,32,2,8,32,> 100,> 100
